# Experimental data taken from patent US11771634B2, “Antimicrobial antifungal composition” (GODREJ INDUSTRIES LIMITED, priority 2021, dated 2023).
# How the values were obtained:
# Ps. aeruginosa = assay: MIC by Tube/Plate dilution method; assay type: cell-based
# Experimental: (§1) The minimum inhibitory concentration (MIC) of an antibacterial is the maximum dilution of the product that will still inhibit the growth of a test microorganism. In Tube/Plate dilution method, serial dilutions of the products are made in bacterial growth media, incubated, and scored for growth. It was determined by Tube/Plate method.
# Escherichia coli = assay: MIC by Tube/Plate dilution method; assay type: cell-based
# Experimental: as §1
# Staph. aureus = assay: MIC by Tube/Plate dilution method; assay type: cell-based
# Experimental: as §1
# Candida albicans = assay: MIC by Tube/Plate dilution method; assay type: cell-based
# Experimental: as §1
# [1] = tested on: gm +ve and gm −ye micro-organism; assay: Antibacterial efficacy by MIC, overall conclusion; assay type: cell-based
# Experimental: as §1
# M. furfur [2] = assay: Time kill method (ASTM E 2315-16); assay type: cell-based, Malassezia furfur; details: 1% AI
# From the text: Time Kill Method (at 1% AI) Against Test Organism M. furfur.
# M. furfur [3] = assay: Anti-dandruff efficacy, zone of inhibition; assay type: cell-based, Malassezia furfur
# From the text: Comparison of Anti-Dandruff Efficacy Against M. furfur
# From the text for zein (corn protein): The Zein test enables to determine the irritation potential (harshness) of a surfactant-based product (shower gel, shampoo, soap, washing-up liquid, etc.). It consists in making soluble a yellow corn protein that is similar to the keratin present in the skin and hair. The irritation potential of the product is directly proportional to the quantity of dissolved proteins. The Zein Test provides a rapid and convenient screen for irritation potential, especially for compositions that contain surface active agents.
# This method involves measuring the solubility of zein (corn protein) in cleansing base solutions as follows.
# To 40 mL of samples, 2 f 0.05 g of zein from corn was added. The solutions with zein were shaken in a shaker with water bath (60 min. at 35° C.). The solutions were filtered on Whatman No. 1 filters and then centrifuged at 5000 rpm for 10 min. The nitrogen content in the solutions was determined by Kjeldahl method. One millilitre of the filtrate was mineralized in sulfuric acid (98%) containing copper sulphate pentahydrate and potassium sulphate. After mineralization, the solution was transferred (with 50 mL of Milli-Q water) into the flask of the Wagner-Parnas apparatus. In the next step, 20 mL of sodium hydroxide (25 wt. %) was added. The released ammonia was distilled with steam. […]
# The zein number (ZN) was calculated from the equation: ZN=(10−V1)·100·0.7 [mg N/100 mL] […]
Molecule,MIC (Ps. aeruginosa) [ppm],MIC (Escherichia coli) [ppm],MIC (Staph. aureus) [ppm],MIC (Candida albicans) [ppm],Zein Number (ZN) (zein (corn protein)) [mg N/100 mL],Antibacterial efficacy [1],Antimicrobial Activity Log Reduction (M. furfur [2]; exposure time 1 minute) [Log],Antimicrobial Activity Percentage reduction (M. furfur [2]; exposure time 1 minute) [%],Count of Test Organism After Exposure CFU/ml (M. furfur [2]; exposure time 1 minute) [CFU/ml],Count of Test Organism After Exposure Log (M. furfur [2]; exposure time 1 minute) [Log],Antimicrobial Activity Log Reduction (M. furfur [2]; exposure time 5 minutes) [Log],Antimicrobial Activity Percentage reduction (M. furfur [2]; exposure time 5 minutes) [%],Count of Test Organism After Exposure CFU/ml (M. furfur [2]; exposure time 5 minutes) [CFU/ml],Count of Test Organism After Exposure Log (M. furfur [2]; exposure time 5 minutes) [Log],Comments (zone of inhibition) (M. furfur [3]; Active Conc. 1%),Zone of Inhibition (ZOI) (M. furfur [3]; Active Conc. 1%) [mm],Comments (zone of inhibition) (M. furfur [3]; Active Conc. 2%),Zone of Inhibition (ZOI) (M. furfur [3]; Active Conc. 2%) [mm]
"C=CCCCCCCCCC(=O)NCCC[N+](C)(C)CC(O)COP(=O)([O-])OCC(O)C[N+](C)(C)CCCNC(=O)CCCCCCCCC=C.[Cl-] (stereo not drawn) [UDAP PB, Undecylenamidopropyl PG-Dimonium Chloride Phosphate]",<700,<300,<300,<200,36,effective antibacterial,>4.19,>99.99,<10,<1,>4.19,>99.99,<10,<1,Effective,28,Effective,33
"zinc pyrithione [ZnPTO, reference compound]",–,–,–,–,–,–,>3.95,>99.98,<10,<1,>3.95,>99.98,<10,<1,Effective,34,Effective,41
